# Read-outs that look alike come from different tables or passages of the source.
# System: Mtb H37Rv strain
# Assay: Resazurin (Alamar Blue) MIC assay against replicating Mtb
# Assay type: cell-based, Mycobacterium tuberculosis
# Conditions: for MIC: Mycobacterium tuberculosis, H37RV
# [1] = in vitro cultured Mtb H37Rv, lowest concentration inhibiting ≥90% growth, initial hits, quinoxaline di-N-oxides, positive controls
# [2] = in vitro cultured Mtb H37Rv, lowest concentration inhibiting ≥90% growth, initial hits, quinoxaline di-N-oxides, positive controls, read-out: Mtb MIC (H37Rv)
# [3] = synthesized BAS 00623753 and arylamide analogs (Table 1)
# [4] = synthesized BAS 00623753 and arylamide analogs (Table 1), read-out: Mtb MIC (H37Rv)
SMILES,Mtb MIC (H37Rv) [1],also measured
CC(C)=CCC/C(C)=C/CCC(=O)c1c(C)[n+]([O-])c2ccc(Cl)cc2[n+]1[O-] [SRI49],5 µg/mL,
Cc1ccc2c(c1)[n+]([O-])c(C)c(C(=O)C(C)C)[n+]2[O-] [SRI38],10 µg/mL,
Cc1c(C(=O)O)[n+]([O-])c2ccccc2[n+]1[O-] [SRI53],>40 µg/mL,MIC [2]: > 40 µg/mL
"O=C(NCc1ccccn1)c1ccccc1[N+](=O)[O-] [BAS 00623753, 2-nitro-N-pyridin-2-ylmethyl-benzamide]",5 µg/mL,"MIC [2]: 5 µg/mL; MIC (read-out: Mtb MIC (H37Rv), synthesized BAS 00623753 and arylamide analogs (Table 1)): ≥ 50 µg/mL"
Cc1c(C(=O)C2CC2)[n+]([O-])c2cc(Cl)ccc2[n+]1[O-] [SRI26],5 µg/mL,
Cc1c(C(=O)c2ccccc2)[n+]([O-])c2ccc(Cl)cc2[n+]1[O-] [SRI7],5 µg/mL,
O=C(NCc1ccncn1)c1ccccc1[N+](=O)[O-] [JSF-2177],,Mtb MIC (H37Rv) [3]: >50 µg/mL
O=C(NCc1cnccn1)c1ccccc1[N+](=O)[O-] [JSF-2171],,Mtb MIC (H37Rv) [3]: >50 µg/mL
Cc1c(C(=O)CC(C)C)[n+]([O-])c2cc(Cl)ccc2[n+]1[O-] [SRI18],,MIC [2]: 10 µg/mL
Cc1ccc2c(c1)[n+]([O-])c(C)c(C(=O)c1ccccc1)[n+]2[O-] [SRI6],>40 µg/mL,
Cc1c(C(=O)C(C)C)[n+]([O-])c2ccc(Cl)cc2[n+]1[O-] [SRI27],,MIC [2]: > 40 µg/mL
CCCCCC(=O)c1c(C)[n+]([O-])c2ccc(OC)cc2[n+]1[O-] [SRI40],>40 µg/mL,
CCCCC(=O)c1c(C)[n+]([O-])c2cc(C)ccc2[n+]1[O-] [SRI30],,MIC [2]: 5 µg/mL
CCC(=O)c1c(CC)[n+]([O-])c2ccc(Cl)cc2[n+]1[O-] [SRI24],,MIC [2]: 10 µg/mL
O=C(NCc1ccccn1)c1ccccc1C(F)(F)F [JSF-2211],,Mtb MIC (H37Rv) [3]: >50 µg/mL
CC(C)=CCC/C(C)=C/CCC(=O)c1c(C)[n+]([O-])c2ccc(C)cc2[n+]1[O-] [SRI48],,MIC [2]: 5 µg/mL
CCC(=O)c1c(C)[n+]([O-])c2ccc(OC)cc2[n+]1[O-] [SRI46],20 µg/mL,
C=CCCC(=O)c1c(C)[n+]([O-])c2cc(C)ccc2[n+]1[O-] [SRI35],4.3 µg/mL,
Cc1c(C(=O)c2cccnc2)[n+]([O-])c2ccc(Cl)cc2[n+]1[O-] [SRI11],10 µg/mL,
O=C(NCc1ncccn1)c1ccccc1[N+](=O)[O-] [JSF-2178],,MIC [4]: > 50 µg/mL
"NNC(=O)c1ccncc1 [isoniazid, reference compound]",,MIC [2]: 0.0031 to 0.012 µg/mL

SMILES,Mtb MIC (H37Rv) [1],also measured
"CO[C@H]1/C=C/O[C@@]2(C)Oc3c(C)c(O)c4c(O)c(c(/C=N/N5CCN(C)CC5)c(O)c4c3C2=O)NC(=O)/C(C)=C\C=C\[C@H](C)[C@H](O)[C@@H](C)[C@@H](O)[C@@H](C)[C@H](OC(C)=O)[C@@H]1C [Rifampicin, reference compound]",,MIC [2]: 0.0031 to 0.012 µg/mL
CC(=O)c1c(C)[n+]([O-])c2ccc(C)cc2[n+]1[O-] [SRI2],5.0 µg/mL,
CC(C)(NC(=O)c1ccccc1[N+](=O)[O-])c1ncccn1 [JSF-2176],,MIC [4]: > 50 µg/mL
COc1ccc2c(c1)[n+]([O-])c(C(=O)CCC=C(C)C)c(C)[n+]2[O-] [SRI45],20 µg/mL,
CC(=O)c1c(C)[n+]([O-])c2cc([N+](=O)[O-])ccc2[n+]1[O-] [SRI5],2.5 µg/mL,
Cc1c(C(=O)c2ccccc2)[n+]([O-])c2cc(Cl)c(Cl)cc2[n+]1[O-] [SRI62],2.5 µg/mL,
O=C(NCc1ccc(Cl)cn1)c1ccccc1[N+](=O)[O-] [JSF-2174],,Mtb MIC (H37Rv) [3]: >50 µg/mL
Cc1c(C(=O)c2ccccc2)[n+]([O-])c2ccc([N+](=O)[O-])cc2[n+]1[O-] [SRI10],,MIC [2]: 5 µg/mL
Cc1c(C(=O)C2CC2)[n+]([O-])c2ccc(Cl)cc2[n+]1[O-] [SRI25],,MIC [2]: 5 µg/mL
COc1ccc2c(c1)[n+]([O-])c(C)c(C(=O)C(F)(F)F)[n+]2[O-] [SRI15],10 µg/mL,
C=CCCC(=O)c1c(C)[n+]([O-])c2cc(Cl)ccc2[n+]1[O-] [SRI22],,MIC [2]: 5 µg/mL
Cc1c(C(=O)c2cccnc2)[n+]([O-])c2ccc([N+](=O)[O-])cc2[n+]1[O-] [SRI13],20 µg/mL,
CCCCCC(=O)c1c(C)[n+]([O-])c2cc(C)ccc2[n+]1[O-] [SRI31],20 µg/mL,
Cc1ccccc1C(=O)NCc1ccccn1 [JSF-2209],,Mtb MIC (H37Rv) [3]: >50 µg/mL
COc1ccc2c(c1)[n+]([O-])c(C(C)=O)c(C)[n+]2[O-] [SRI3],10 µg/mL,
Cc1cccnc1CNC(=O)c1ccccc1[N+](=O)[O-] [JSF-2172],,Mtb MIC (H37Rv) [3]: >50 µg/mL
CCCCCC(=O)c1c(C)[n+]([O-])c2cc(Cl)c(Cl)cc2[n+]1[O-] [SRI59],2.5 µg/mL,
O=C(NCc1ccccn1)c1ccccc1 [JSF-2133],,Mtb MIC (H37Rv) [3]: >50 µg/mL
COc1ccc2c(c1)[n+]([O-])c(C(=O)CC(C)C)c(C)[n+]2[O-] [SRI43],,MIC [2]: 20 µg/mL
Cc1c(C(=O)c2ccccc2)[n+]([O-])c2cc(Cl)ccc2[n+]1[O-] [SRI8],,MIC [2]: 10 µg/mL
C=CCCC(=O)c1c(C)[n+]([O-])c2ccc(OC)cc2[n+]1[O-] [SRI44],20 µg/mL,

SMILES,Mtb MIC (H37Rv) [1],also measured
Cc1c(C(=O)CC(C)C)[n+]([O-])c2ccc(Cl)cc2[n+]1[O-] [SRI19],5 µg/mL,
CCCCCC(=O)c1c(C)[n+]([O-])c2cc(Cl)ccc2[n+]1[O-] [SRI20],,MIC [2]: 5 µg/mL
CCCCC(=O)c1c(C)[n+]([O-])c2ccc(Cl)cc2[n+]1[O-] [SRI17],,MIC [2]: 2.5 µg/mL
Cc1ccnc(CNC(=O)c2ccccc2[N+](=O)[O-])c1 [JSF-2173],,Mtb MIC (H37Rv) [3]: >50 µg/mL
CCCCC(=O)c1c(C)[n+]([O-])c2ccc(OC)cc2[n+]1[O-] [SRI39],10 µg/mL,
CC(C)=CCCC(=O)c1c(C)[n+]([O-])c2cc(Cl)ccc2[n+]1[O-] [SRI29],5 µg/mL,
Cc1c(C(=O)CC(C)C)[n+]([O-])c2cc(Cl)c(Cl)cc2[n+]1[O-] [SRI60],2.5 µg/mL,
Cc1ccc(CNC(=O)c2ccccc2[N+](=O)[O-])nc1 [JSF-2175],,Mtb MIC (H37Rv) [3]: >50 µg/mL
CCC(=O)c1c(CC)[n+]([O-])c2cc(Cl)ccc2[n+]1[O-] [SRI23],,MIC [2]: 5 µg/mL
COc1ccc2c(c1)[n+]([O-])c(C(=O)CC/C=C(\C)CCC=C(C)C)c(C)[n+]2[O-] [SRI47],20 µg/mL,
CCCCC(=O)c1c(C)[n+]([O-])c2cc(Cl)ccc2[n+]1[O-] [SRI16],5 µg/mL,
Cc1ccc2c(c1)[n+]([O-])c(C)c(C(=O)CC(C)C)[n+]2[O-] [SRI34],,MIC [2]: 20 µg/mL
CC(C)=CCC/C(C)=C/CCC(=O)c1c(C)[n+]([O-])c2ccccc2[n+]1[O-] [SRI51],5 µg/mL,
O=C(NCc1ccccn1)c1ccccc1[N+](=O)[O-] [JSF-2210],,Mtb MIC (H37Rv) [3]: >50 µg/mL
C=CCCC(=O)c1c(C)[n+]([O-])c2cc(Cl)c(Cl)cc2[n+]1[O-] [SRI61],2.5 µg/mL,
Cc1ccc2c(c1)[n+]([O-])c(C)c(C(=O)C(F)(F)F)[n+]2[O-] [SRI14],10 µg/mL,
O=C(NCc1ccccn1)c1ccccc1F [JSF-2208],,Mtb MIC (H37Rv) [3]: >50 µg/mL
Cc1ccc2c(c1)[n+]([O-])c(C)c(C(=O)C1CC1)[n+]2[O-] [SRI33],5 µg/mL,
CCCCCC(=O)c1c(C)[n+]([O-])c2ccc(Cl)cc2[n+]1[O-] [SRI21],10 µg/mL,

# — article PMC4627656, “Combining Metabolite-Based Pharmacophores with Bayesian Machine Learning Models for Mycobacterium tuberculosis Drug Discovery” (PLoS ONE, 2015)
